In PubChem BioAssay (NCI):
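In this assay, cells in 96-well plates receive the compound at five concentrations for 48 hours. Endpoints are linearly interpolated between the surrounding concentrations. TGI marks complete inhibition of growth.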

Assays:
Assay in all cases: NCI-60 cell line screen, 48 h
BT-549 breast = tested on: BT-549 breast
CCRF-CEM leukemia = tested on: CCRF-CEM leukemia
COLO 205 colon = tested on: COLO 205 colon
DU-145 prostate = tested on: DU-145 prostate
EKVX NSCLC = tested on: EKVX NSCLC
HCC-2998 colon = tested on: HCC-2998 colon
HCT-116 colon = tested on: HCT-116 colon
HCT-15 colon = tested on: HCT-15 colon
HL-60(TB) leukemia = tested on: HL-60(TB) leukemia
HOP-62 NSCLC = tested on: HOP-62 NSCLC
HT29 colon = tested on: HT29 colon
K-562 leukemia = tested on: K-562 leukemia
KM12 colon = tested on: KM12 colon
LOX IMVI melanoma = tested on: LOX IMVI melanoma
M14 melanoma = tested on: M14 melanoma
MALME-3M melanoma = tested on: MALME-3M melanoma
MCF7 breast = tested on: MCF7 breast
MDA-MB-231 breast = tested on: MDA-MB-231 breast
MDA-MB-435 = tested on: MDA-MB-435
MDA-N = tested on: MDA-N
MOLT-4 leukemia = tested on: MOLT-4 leukemia
NCI-H226 lung = tested on: NCI-H226 lung
NCI-H23 lung = tested on: NCI-H23 lung
NCI-H460 lung = tested on: NCI-H460 lung
NCI/ADR-RES ovarian = tested on: NCI/ADR-RES ovarian
OVCAR-3 ovarian = tested on: OVCAR-3 ovarian
OVCAR-8 ovarian = tested on: OVCAR-8 ovarian
PC-3 prostate = tested on: PC-3 prostate
RPMI-8226 leukemia = tested on: RPMI-8226 leukemia
RXF 393 renal = tested on: RXF 393 renal
SF-268 CNS = tested on: SF-268 CNS
SF-295 CNS = tested on: SF-295 CNS
SK-MEL-2 melanoma = tested on: SK-MEL-2 melanoma
SK-MEL-28 melanoma = tested on: SK-MEL-28 melanoma
SN12C renal = tested on: SN12C renal
SNB-19 CNS = tested on: SNB-19 CNS
SR leukemia = tested on: SR leukemia
SW-620 colon = tested on: SW-620 colon
T-47D breast = tested on: T-47D breast
TK-10 renal = tested on: TK-10 renal
U251 CNS = tested on: U251 CNS
UACC-257 melanoma = tested on: UACC-257 melanoma
UO-31 renal = tested on: UO-31 renal
786-0 renal = tested on: 786-0 renal
A498 renal = tested on: A498 renal
A549 NSCLC = tested on: A549 NSCLC
ACHN renal = tested on: ACHN renal
CAKI-1 renal = tested on: CAKI-1 renal
HOP-92 NSCLC = tested on: HOP-92 NSCLC
HS 578T breast = tested on: HS 578T breast
IGROV1 ovarian = tested on: IGROV1 ovarian
NCI-H522 lung = tested on: NCI-H522 lung
OVCAR-4 ovarian = tested on: OVCAR-4 ovarian
OVCAR-5 ovarian = tested on: OVCAR-5 ovarian
SF-539 CNS = tested on: SF-539 CNS
SK-MEL-5 melanoma = tested on: SK-MEL-5 melanoma
SK-OV-3 ovarian = tested on: SK-OV-3 ovarian
SNB-75 CNS = tested on: SNB-75 CNS
UACC-62 melanoma = tested on: UACC-62 melanoma

CN1C2CCC1CC(C)(O)C2 (stereo not given)
TGI (BT-549 breast): > 100 µM | TGI (CCRF-CEM leukemia): > 100 µM | TGI (COLO 205 colon): > 100 µM | TGI (DU-145 prostate): > 100 µM | TGI (EKVX NSCLC): > 100 µM | TGI (HCC-2998 colon): > 100 µM | TGI (HCT-116 colon): > 100 µM | TGI (HCT-15 colon): > 100 µM | TGI (HL-60(TB) leukemia): > 100 µM | TGI (HOP-62 NSCLC): > 100 µM | TGI (HT29 colon): > 100 µM | TGI (K-562 leukemia): > 100 µM | TGI (KM12 colon): > 100 µM | TGI (LOX IMVI melanoma): > 100 µM | TGI (M14 melanoma): > 100 µM | TGI (MALME-3M melanoma): > 100 µM | TGI (MCF7 breast): > 100 µM | TGI (MDA-MB-231 breast): > 100 µM | TGI (MDA-MB-435): > 100 µM | TGI (MDA-N): > 100 µM | TGI (MOLT-4 leukemia): > 100 µM | TGI (NCI-H226 lung): > 100 µM | TGI (NCI-H23 lung): > 100 µM | TGI (NCI-H460 lung): > 100 µM | TGI (NCI/ADR-RES ovarian): > 100 µM | TGI (OVCAR-3 ovarian): > 100 µM | TGI (OVCAR-8 ovarian): > 100 µM | TGI (PC-3 prostate): > 100 µM | TGI (RPMI-8226 leukemia): > 100 µM | TGI (RXF 393 renal): > 100 µM | TGI (SF-268 CNS): > 100 µM | TGI (SF-295 CNS): > 100 µM | TGI (SK-MEL-2 melanoma): > 100 µM | TGI (SK-MEL-28 melanoma): > 100 µM | TGI (SN12C renal): > 100 µM | TGI (SNB-19 CNS): > 100 µM | TGI (SR leukemia): > 100 µM | TGI (SW-620 colon): > 100 µM | TGI (T-47D breast): > 100 µM | TGI (TK-10 renal): > 100 µM | TGI (U251 CNS): > 100 µM | TGI (UACC-257 melanoma): > 100 µM | TGI (UO-31 renal): > 100 µM

CCC1(C)C=Cc2c(cc(O)c3c(=O)c4ccccc4n(C)c23)O1 (stereo not given)
TGI (786-0 renal): > 10 µM | TGI (A498 renal): > 10 µM | TGI (A549 NSCLC): > 10 µM | TGI (ACHN renal): > 10 µM | TGI (BT-549 breast): > 10 µM | TGI (CAKI-1 renal): > 10 µM | TGI (CCRF-CEM leukemia): > 10 µM | TGI (COLO 205 colon): > 10 µM | TGI (DU-145 prostate): > 10 µM | TGI (EKVX NSCLC): > 10 µM | TGI (HCC-2998 colon): > 10 µM | TGI (HCT-116 colon): > 10 µM | TGI (HCT-15 colon): > 10 µM | TGI (HOP-62 NSCLC): > 10 µM | TGI (HOP-92 NSCLC): > 10 µM | TGI (HS 578T breast): > 10 µM | TGI (HT29 colon): > 10 µM | TGI (IGROV1 ovarian): > 10 µM | TGI (K-562 leukemia): > 10 µM | TGI (KM12 colon): > 10 µM | TGI (LOX IMVI melanoma): > 10 µM | TGI (M14 melanoma): > 10 µM | TGI (MALME-3M melanoma): > 10 µM | TGI (MCF7 breast): > 10 µM | TGI (MDA-MB-231 breast): > 10 µM | TGI (MDA-MB-435): > 10 µM | TGI (MDA-N): > 10 µM | TGI (MOLT-4 leukemia): > 10 µM | TGI (NCI-H226 lung): > 10 µM | TGI (NCI-H23 lung): > 10 µM | TGI (NCI-H460 lung): > 10 µM | TGI (NCI-H522 lung): > 10 µM | TGI (NCI/ADR-RES ovarian): > 10 µM | TGI (OVCAR-3 ovarian): > 10 µM | TGI (OVCAR-4 ovarian): > 10 µM | TGI (OVCAR-5 ovarian): > 10 µM | TGI (OVCAR-8 ovarian): > 10 µM | TGI (PC-3 prostate): > 10 µM | TGI (RPMI-8226 leukemia): > 10 µM | TGI (RXF 393 renal): > 10 µM | TGI (SF-268 CNS): > 10 µM | TGI (SF-295 CNS): > 10 µM | TGI (SF-539 CNS): > 10 µM | TGI (SK-MEL-2 melanoma): > 10 µM | TGI (SK-MEL-28 melanoma): > 10 µM | TGI (SK-MEL-5 melanoma): > 10 µM | TGI (SK-OV-3 ovarian): > 10 µM | TGI (SN12C renal): > 10 µM | TGI (SNB-19 CNS): > 10 µM | TGI (SNB-75 CNS): > 10 µM | TGI (SW-620 colon): > 10 µM | TGI (T-47D breast): > 10 µM | TGI (TK-10 renal): > 10 µM | TGI (U251 CNS): > 10 µM | TGI (UACC-257 melanoma): > 10 µM | TGI (UACC-62 melanoma): > 10 µM | TGI (UO-31 renal): > 10 µM
